The subject of this experiment is LAB-1. Briefly: Antibiotic sensitivity testing of LAB-1. The experiment is classed as cell-based. As to conditions: LAB-1 organism. The protocol:
A variety of biochemical tests were performed in order to identify the species and the genus of organism. The tests included: assessment of growth conditions, culture appearance, cell appearance and staining characteristics, optimal temperature and pH growth range, oxygen requirements, antibiotic sensitivity testing, tests for catalase and oxidase (using TAXOS N ? disks), amino acid utilization as carbon source, nitrogen fixation, motility test, and a variety of commercially available tests from MICRO-ID ? , OXYFERM ? , ENTEROTUBE ? and BIOLOG GN MICROPLATE ? .

As for Neomycin, the “Antibiotic Susceptibility Results” value is “sensitive”.
In the case of `CC1(C)S[C@@H]2[C@H](NC(=O)[C@H](N)c3ccccc3)C(=O)N2[C@H]1C(=O)O` [Ampicillin] it was “resistant”; in that of `CC[C@H]1OC(=O)[C@H](C)[C@@H](O[C@H]2C[C@@](C)(OC)[C@@H](O)[C@H](C)O2)[C@H](C)[C@@H](O[C@@H]2O[C@H](C)C[C@H](N(C)C)[C@H]2O)[C@](C)(O)C[C@@H](C)C(=O)[C@H](C)[C@@H](O)[C@]1(C)O` [Erythromycin], “resistant”.
In the case of `CO[C@@H]1[C@@H](OC(N)=O)[C@@H](O)[C@H](Oc2ccc3c(O)c(NC(=O)c4ccc(O)c(CC=C(C)C)c4)c(=O)oc3c2C)OC1(C)C` [Novobiocin] it was “sensitive”.
In the case of Polymyxin B it was “sensitive”; in that of Penicillin, “resistant”; in that of `[H]/N=C(/N)N[C@H]1[C@H](O)[C@@H](O)[C@H](O[C@@H]2O[C@@H](C)[C@](O)(C=O)[C@H]2O[C@@H]2O[C@@H](CO)[C@H](O)[C@@H](O)[C@@H]2NC)[C@@H](N/C(N)=N\[H])[C@@H]1O` [Streptomycin], “resistant”.
As for `NCC[C@H](O)C(=O)N[C@@H]1C[C@H](N)[C@@H](O[C@H]2O[C@H](CN)[C@@H](O)[C@H](O)[C@H]2O)[C@H](O)[C@H]1O[C@H]1O[C@H](CO)[C@@H](O)[C@H](N)[C@H]1O` [Amikacin], the “Antibiotic Susceptibility Results” value is on record as “sensitive”.

These data come from patent US7214792B2 (priority 1999, dated 2007).
